The values that follow come from patent US12162885B2, “Crystal form of Xevinapant for treating LA SCCHN” (CRYSTAL PHARMACEUTICAL (SUZHOU) CO., LTD., priority 2022, dated 2024).

Data set [1] in a line: Humidity stability test with DVS analyzer. Type of data set: physicochemical. The note with it: DVS 0% RH-95% RH. As for the experimental part: Dynamic Vapor Sorption (DVS) was measured via an SMS (Surface Measurement Systems Ltd.) intrinsic DVS instrument. The instrument control software is DVS-Intrinsic control software. Typical Parameters for DVS test are as follows: • Temperature: 25° C. • Gas and flow rate: N2, 200 mL/min • dm/dt: 0.002%/min • RH range: 0% RH-95% RH
DVS analyzer was applied to evaluate the humidity stability of prior art solids, Form CSI and Form CSII. The appearance of Form CSI before and after humidity stability test is shown in FIG. 12, and an XRPD pattern of Form CSI before and after test is shown in FIG. 13. The appearance of Form CSII before and after humidity stability test is shown in FIG. 14, and an XRPD pattern of Form CSII before and after test is shown in FIG. 15.

Data set [2] is described as follows: Storage stability of drug substance with open package (HPLC purity, XRPD form, appearance). Type of data set: physicochemical. How it is done:
An appropriate amount of Form CSI was packaged with corresponding condition, and then stored with open package under 25° C./60% RH, 40° C./75% RH and 60° C./75% RH conditions for a period. Appropriate amounts of prior art solids were packaged with corresponding condition, and then stored with open package under 25° C./60% RH and 60° C./75% RH conditions for a period. Chemical purity and crystalline form were checked by HPLC and XRPD, respectively. The appearance comparison of prior art solid A and Solid B before and after storage are shown in FIG. 19 and FIG. 20, respectively.
Open: Put the sample into a glass vial, cover the vial with aluminum foil, and punch 5-10 holes in the foil.
An appropriate amount of Form CSII and prior art solids were packaged with corresponding conditions, and then stored with open package under 25° C./60% RH and 60° C./75% RH for a period. Chemical purity and crystalline form were checked by HPLC and XRPD, respectively. The appearance comparison of prior art solid A and Solid B before and after storage are shown in FIG. 19 and FIG. 20, respectively.

Data set [3] is described as follows: Stability upon mechanical force (ball milling, tableting; XRPD). Format: physicochemical. The note with it: for Crystalline form before and after tableting (XRPD): manual tablet press, 20 kN, 6 mm round tooling; for Crystal form before and after ball milling (XRPD): milled 5 min at 500 rpm in a ball mill. How it is done: Form CSI was milled for 5 min at a vibration speed of 500 rpm in a ball mill. The sample before and after ball milling were checked by XRPD. […] An appropriate amount of Form CSI was compressed into a tablet using a manual tablet press under a pressure of 20 kN with a ϕ6 mm round tooling. Crystalline form before and after tableting were checked by XRPD. […] Form CSII was milled for 5 min at a vibration speed of 500 rpm in a ball mill. The sample before and after ball milling were checked by XRPD. […] An appropriate amount of Form CSII was compressed into a tablet using a manual tablet press under a pressure of 20 kN with a @6 mm round tooling. Crystalline form before and after tableting were checked by XRPD.

The nature of a further data set: Hygroscopicity by DVS. Format: physicochemical. The note with it: from 0% RH to 80% RH. How it is done: Dynamic Vapor Sorption (DVS) was measured via an SMS (Surface Measurement Systems Ltd.) intrinsic DVS instrument. The instrument control software is DVS-Intrinsic control software. Typical Parameters for DVS test are as follows: • Temperature: 25° C. • Gas and flow rate: N2, 200 mL/min • dm/dt: 0.002%/min • RH range: 0% RH-95% RH DVS analyzer was applied to evaluate the hygroscopicity of Form CSI with about 10 mg of sample. […] DVS analyzer was applied to evaluate the hygroscopicity of Form CSII with about 10 mg of sample.

Data set [4] in a line: Stability of crystalline form in the formulation process (XRPD). Format: physicochemical. The note with it: formulation of Table 9, process of Table 10. How it is done: An XRPD of blank prescription (excipients) and the samples before and after the formulation were tested, and result is shown in FIG. 24. […] [table] [table] An XRPD of Blank prescription (excipients) and Form CSII before and after the formulation were tested, and result is shown in FIG. 28.

A further data set deals with LA SCCHN. The note with it: phase 2 clinical trial, combination with CRT compared to CRT alone; cited from earlier work.
Where [5] appears, read: Initial (baseline of storage stability).

“Also recorded” adds a separate entry of the source.

Turning to `CN[C@@H](C)C(=O)N[C@H]1CN(C(=O)CC(C)C)CC[C@H]2CC[C@@H](C(=O)NC(c3ccccc3)c3ccccc3)N2C1=O` [Form CSII], in data set [1], the Appearance after test entry was “Powder”; the “Crystal change before and after humidity stability test (XRPD)” value is on record as “no crystal change”. Moreover, in data set [2] (60° C./75% RH open condition), the Physical stability entry is on record as “keeps physically stable for at least four weeks”. In data set [2] (60° C./75% RH, Open, 4 weeks), the Appearance result is recorded as “Powder” and the Form result is “No crystal change; also recorded: Form CSII”. In data set [2] (Initial), the Appearance entry was “Powder” and the Form result is “Form CSII”. For the same compound, in data set [3], the “Crystalline form before and after tableting (XRPD)” value is reported as “kept stable after tableting”; the “Crystal form before and after ball milling (XRPD)” value was “keeps stable after ball milling”. In “Hygroscopicity by DVS”, this compound showed a Weight gain of 1.16%. In data set [4], the “Crystalline form before and after the formulation process (XRPD)” value is “keeps stable before and after the formulation process”.

`CN[C@@H](C)C(=O)N[C@H]1CN(C(=O)CC(C)C)CC[C@H]2CC[C@@H](C(=O)NC(c3ccccc3)c3ccccc3)N2C1=O` [Form CSI]: the Appearance after test entry in data set [1] was “Powder”. Also, the “Crystal change before and after humidity stability test (XRPD)” value in data set [1] is given as “no crystal change”. Moreover, the Time stable entry in data set [2] (25° C./60% RH open condition) is “at least 6 months”; in data set [2] (40° C./75% RH open condition) it was “at least 6 months”; in data set [2] (60° C./75% RH open condition) it was “at least 3 months”. Also, the Appearance entry in data set [2] (25° C./60% RH, Open, 6 months) is “Powder”; in data set [2] (40° C./75% RH, Open, 6 months), “Powder”; in data set [2] (60° C./75% RH, Open, 3 months) it was “Powder”; in data set [2] (Initial) it was “Powder”. Moreover, the Form result in data set [2] (25° C./60% RH, Open, 6 months) is reported as “Form CSI”; in data set [2] (40° C./75% RH, Open, 6 months) it was “Form CSI”; in data set [2] (60° C./75% RH, Open, 3 months), “Form CSI”; in data set [2] (Initial) it was “Form CSI”. Moreover, the Purity is 99.45% in data set [2] (25° C./60% RH, Open, 6 months); 99.45% in data set [2] (40° C./75% RH, Open, 6 months); 99.50% in data set [2] (setting [5]). The “Crystalline form before and after tableting (XRPD)” value in data set [3] is listed as “keeps stable after tableting”. Moreover, the “Crystal form before and after ball milling (XRPD)” value in data set [3] is given as “No crystal change”. Also, the Weight gain in “Hygroscopicity by DVS” turned out to be 0.46%. In data set [4], the “Crystalline form before and after the formulation process (XRPD)” value was “keeps stable before and after the formulation process”.

Regarding `CN[C@@H](C)C(=O)N[C@H]1CN(C(=O)CC(C)C)CC[C@H]2CC[C@@H](C(=O)NC(c3ccccc3)c3ccccc3)N2C1=O.Cl` [Prior art Solid A, reference compound], in data set [1], the Appearance after test result is “Transparent solid”. For the same compound, the Appearance entry in data set [2] (25° C./60% RH, Open, 1 month) is “Powder”; in data set [2] (60° C./75% RH, Open, 1 week) it was “Gel”; in data set [2] (Initial), “Powder”. Besides, the Form result is “Amorphous” in data set [2] (25° C./60% RH, Open, 1 month); “Gel” in data set [2] (60° C./75% RH, Open, 1 week); “Amorphous” in data set [2] (Initial). In addition, the Purity in data set [2] (25° C./60% RH, Open, 1 month) came to 98.65%; in data set [2] (setting [5]), 98.77%.

With `CN[C@@H](C)C(=O)N[C@H]1CN(C(=O)CC(C)C)CC[C@H]2CC[C@@H](C(=O)NC(c3ccccc3)c3ccccc3)N2C1=O.O=C(O)C(F)(F)F` [Prior art Solid B, reference compound], the Appearance after test entry in data set [1] is recorded as “Transparent solid”. For the same compound, the Appearance entry is reported as “Powder” in data set [2] (25° C./60% RH, Open, 1 month); “Gel” in data set [2] (60° C./75% RH, Open, 1 week); “Powder” in data set [2] (Initial). The Form entry in data set [2] (25° C./60% RH, Open, 1 month) is reported as “Amorphous”; in data set [2] (60° C./75% RH, Open, 1 week) it was “Gel”; in data set [2] (Initial), “Amorphous”. The Purity in data set [2] (25° C./60% RH, Open, 1 month) is reported as 98.73%; in data set [2] (setting [5]), 98.87%.

On to `CN[C@@H](C)C(=O)N[C@H]1CN(C(=O)CC(C)C)CC[C@H]2CC[C@@H](C(=O)NC(c3ccccc3)c3ccccc3)N2C1=O` [Xevinapant, (5S,8S,10aR)—N-benzhydryl-5-((S)-2-(methylamino)propanamido)-3-(3-methylbutanoyl)-6-oxodecahydropyrrolo[l,2-a][l,5]diazocine-8-carboxamide], for which the “Efficacy in treating patients with LA SCCHN” value with LA SCCHN is listed as “demonstrated efficacy”.
